Measured values: patent US20050059694A1, “New use of 11.28-dioxa-4-azatricyclo [22.3.1.04,9] octacos-18-ene derivatives and pharmaceutical compositions containing them” (Fujisawa Pharmaceutical Co., Ltd., priority 1987, published 2005)
≈ marks a conversion by molar mass, not a printed value.

Legend:
[1] = tested on: human polymorphonuclear neutrophil leukocytes; test: Inhibition of FMLP-stimulated oxidative burst (chemiluminescence) in PMNL; assay type: cell-based; conditions: minimal inhibiting concentration with significant inhibition of all 3 chemiluminescence parameters; FMLP stimulus
Method: (§1) 3. Inhibition of the Oxidative Burst in Human Polymorphonuclear neutrophil leukocytes (inhibition of FMLP—or, respectively, A 23187-stimulated chemiluminescence):
(§2) Polymorphonuclear leukocytes (PMNL) are prepared from human peripheral blood (M. Schaude et al., Mycoses 31 (5) [1988]259-267). Stock solutions of the test substances (500 mg/l) are freshly prepared on the day of experiment in 5% DMSO/RPMI 1640. For the determination of the chemiluminescence (CL) with Biolumat LB 9505 the luminescence indicator DMNH is used. […] The CL-reaction is started by addition of either 100 μl of the peptide FMLP (4×10^−6 M) or of the calcium ionophor A 23187 (4×10^−6 M). […] 3 parameters are used for evaluation of the results: peak intensity of the radiated light, time span up to the peak and surface area under the reaction curve. As minimal inhibiting concentration the concentration of test substance is chosen where a significant inhibition of all 3 parameters can be observed (Table 4).

[2] = tested on: human polymorphonuclear neutrophil leukocytes; test: Inhibition of A 23187-stimulated oxidative burst (chemiluminescence) in PMNL; assay type: cell-based; conditions: minimal inhibiting concentration with significant inhibition of all 3 chemiluminescence parameters; calcium ionophor A 23187 stimulus
Method: as §1, §2

[3] = tested on: TPA-induced PGE2 release from macrophages; test: Inhibition of macrophage activation (TPA-induced PGE2 release); assay type: cell-based, NMRI mice; conditions: PGE2 release from TPA-stimulated mouse peritoneal macrophages
Method: 4. Inhibition of Macrophage Activation (Inhibition of TPA-induced PGE2 release)
Peritoneal exudate cells of NMRI mice pretreated 3 days earlier with 1.5 ml thioglycolate i.p. are harvested by peritoneal lavage, washed with deficient PBS and resuspended in DMEM medium supplemented with 10% FCS. 1×10^6 cells are transferred to each well of a 24-wells plate, and the cells are left to adhere 4 hours at 37° and 5% CO2. The cells are then washed twice with deficient PBS. The resultant, more than 95% pure macrophage population is stimulated with TPA ([…]) in DMEM-medium devoid of FCS. The conditioned media are centrifuged and the PGE2-contents determined using a ^125I-radioimmunotest. PGE2-release inhibition with the test substances is measured as percentage inhibition compared to the controls.

[4] = tested on: oxazolone allergy (allergic contact dermatitis, DTH-reaction); test: Oxazolone allergy (mouse), topical administration; assay type: in vivo; conditions: ethanol as solvent, pinna weight difference 24 hours after second exposure
Method: 1. Determination of the activity after topical administration in models of allergic or allergen-induced contact dermatitis (DTH-reaction) 1.1. Oxazolone Allergy (Mouse): 10 μl of a 2% oxazolone solution are applied onto the abdominal skin of mice for sensitization, 8 days later a second exposure with 10 μl of a 2% oxazolone solution is performed by application on the peripheral internal surface of the pinna. 20 minutes and 2 hours after the second exposure has released the challenge reaction, the test solution is applied at the site of the second exposure. Evaluation of the inhibition of inflammation with the test substance is effected by reference to an untreated group treated with the solvent used for dissolving the test substance, alone. 24 hours after the second exposure the animals are killed and the separated pinnae are weighted. The difference in weight between the two pinnae is used for evaluation; the individual differences in the test group and in the solvent control group are statistically compared (by simple variance analysis with subsequent Dunnet test by normal distribution test if normally distributed, otherwise by […] and Wilcoxon-Mann-Whitney's U-test). The activity of the test substance is indicated in %, based on mean values. […] Ethanol is used as solvent.

[5] = tested on: DNFB contact allergy; test: DNFB allergy (swine), topical administration; assay type: in vivo; conditions: 5% preparation (solution in 15% dimethylformamide, 42.5% ethanol, 42.5% propylenglycol), applied topically 4 times
Method: On the 1st and 3rd day 100 μl each of a 10% DNFB preparation is applied onto the inner surface of the right and, respectively, left thigh. On the 14th day each swine is marked on the right and the left side of the back with circular markings of 5 cm in diameter (8 markings per animal) and 150 μl each of a 0.5% DNFB preparation is applied thereon. The substances are tested either in the form of galenical compositions or of a solution. The carriers are used in each case as placebo controls.
The test products are carefully applied 4 times (first 30 minutes, then 6, 24 and 32 hours after release of the challenge reaction). Prior to each application the test areas are evaluated with respect to reddenning, swelling and consistance. The coloration of the test areas is then determined quantitatively with a reflectometer, repeatedly. From the data on brightness (L*) and saturation (C*) the erythema index is computed according to the following formula: 100−L*×C*. The mean erythema index is a reflection of the activity according to the following formula: [formula]

[6] = tested on: dermatitis induced by croton oil; test: Dermatitis induced by croton oil (mouse), topical administration; assay type: in vivo, NMRI mice; conditions: dissolved in irritant solution, pinna weight difference 6 hours after irritant
Method: 2. Determination of the Activity after Topical Administration In the Irritant-Induced Dermatitis Model (Mouse) 2.2. Dermatitis Induced by Croton Oil Croton oil is often used, as TPA, in order to induce an irritant-induced dermatitis on which substances can be tested for their anti-inflammatory activity (Maibach, Love, Ed., Models in Dermatology, Vol. 3[1987]p. 86-92, Karger-Basel). NMRI-mice are given 15 μl of 0.23% croton oil (in a mixture of dimethylacetamide, acetone and ethanol 2/4/4) on the inner side of the right pinna. Treatment is effected simultaneously with the irritation, the test substance being dissolved in the solution of irritant applied at the auricular test site. Evaluation of the test group is performed by comparison of the inflammation with a group receiving only the irritant solution on the pinna. The animals are killed 6 hours after application of the irritant, the pinnae separated and weighted. The difference between the weights of the two individual pinnae is used for evaluation, by statistical comparison of the single differences in the test group with the single differences in the control group (as under 1.1.). The activity of the test substances is indicated in % based on average values.

[7] = tested on: human keratinocytes; test: Inhibition of proliferation of human keratinocytes; assay type: cell-based
Method: 5. Inhibition of proliferation of human keratinocytes
Cultures of human keratinocytes are obtained by trypsination of human foreskin from newborns or obtained as to EpiPack from Clonetics Corp. (San Diego). The keratinocyte cultures are grown in culture flasks in a supplemented keratinocyte medium (KGM). The passages 3 to 5 of 80-90% confluent keratinocytes are resuspended in KGM at a concentration of 1×10^5 cells/ml, and either 0.1 ml each of this cell suspension is added into a 96-vells microtiter plate or 1 ml each of this cell suspension are added into a 24-wells plate in the presence of test substance. The cells are grown for 48 hours at 37° and 5% CO2. ^3H-thymidine is incorporated during the last 16 hours (microtiter plate, 1 μCi/well), the cells are checked for their morphology, washed thrice with ice-cold, deficient PBS and twice with trichloroacetic acid, solubilized in 100 μl 0.1 N NaOH containing 1% SDS, and the radioactivity is measured. Alternatively, cells from the 24-well plate are trypsinized (trypsin/EDTA), checked for viability by trypan blue exclusion, and triple aliquots are counted in a cell counter.

[8] = tested on: TPA-induced dermatitis; test: TPA-induced dermatitis (mouse), topical administration; assay type: in vivo, NMRI mice; conditions: dimethylacetamide/acetone/ethanol (2/4/4), pinna weight difference 6 hours after irritant
Method: 2. Determination of the Activity after Topical Administration In the Irritant-Induced Dermatitis Model (Mouse) 2.1 TPA-induced Dermatitis: Skin irritation with TPA in test animals is a method for testing substances as to their antiinflammatory activity after local application (Maibach, Lowe, Ed. Models in Dermatology, Vol. 3 [1987] p. 86-92, Karger-Basel). NMRI mice are given 10 μl of a TPA solution on the inner and outer side of the right pinna (2×10 μl/mouse=2×0.5 μg TPA/mouse). The left pinnae remain untreated. Treatment is effected 30 min. after irritation, by application of 2×10 μl of test solution onto the irritated ear surfaces, as described above. The evaluation of the test group is performed by comparison with a group where the right pinna has been treated with only the irritating solution and with the solvent used for the test substance. 6 hours after application of the irritant the animals are killed, the pinnae separated and weighted. The difference in weight of the two pinnae is used for the evaluation, whereby the individual differences of the test groups are statistically compared with the individual differences of the control groups (as under 1.1.). The activity of the test substances is indicated in % on the basis of the average values. The solvent used is a mixture of dimethylacetamide, acetone and ethanol (2/4/4): […]

Row | SMILES | MIC (μM) (FMLP) [1] | MIC (μM) (A 23187) [2] | inhibition at 1 µM [3] | % inhibition ([4]; 0.005 % concentration) | % inhibition ([6]; 0.4 % concentration) | % inhibition ([6]; 1.2 % concentration) | % inhibition ([6]; 3.6 % concentration) | % inhibition ([8]; 1.2 % concentration) | % inhibition ([8]; 3.6 % concentration) | other results
1 | C=CCC1C=C(C)CC(C)CC(OC)C2OC(O)(C(=O)C(=O)N3CCCCC3C(=O)OC(C(C)=CC3CCC(OC(C)=O)C(OC)C3)C(C)C(O)CC1=O)C(C)CC2OC (stereo not shown) [Compound E, 12-[2-(4-acetoxy-3-methoxycyclohexyl)-1-methylvinyl]-17-allyl-1,14-dihydroxy-23,25-dimethoxy-13,19,21,27-tetramethyl-11,28-dioxa-4-azatricyclo[22.3.1.0^4,9]octacos-18-ene-2,3,10,16-tetraone] | <0.5 µM | 0.05 µM (≈ 0.0423 µg/mL) | – | – | – | – | – | – | – | –
2 | C=CCC1C=C(C)CC(C)CC(OC)C2OC(O)(C(=O)C(=O)N3CCCCC3C(=O)OC(C(C)=CC3CCC(OC(C)=O)C(OC)C3)C(C)C(OC(C)=O)CC1=O)C(C)CC2OC (stereo not shown) [Compound D, 14-acetoxy-12-[2-(4-acetoxy-3-methoxycyclohexyl)-1-methylvinyl]-17-allyl-1-hydroxy-23,25-dimethoxy-13,19,21,27-tetramethyl-11,28-dioxa-4-azatricyclo[22.3.1.0^4,9]octacos-18-ene-2,3,10,16-tetraone] | <0.5 µM | 0.5 µM (≈ 0.444 µg/mL) | – | – | – | – | – | – | – | –
3 | COc1ccc2c(c1)c(CC(=O)O)c(C)n2C(=O)c1ccc(Cl)cc1 [Indomethacin, reference compound] | – | – | – | – | 11% | 63% | 96% | 26% | 31% | –

More lines, main results first:

Row | MIC (μM) (FMLP) [1] | MIC (μM) (A 23187) [2] | SMILES | inhibition at 1 µM [3] | % inhibition ([4]; 0.005 % concentration) | % inhibition ([6]; 0.4 % concentration) | % inhibition ([6]; 1.2 % concentration) | % inhibition ([6]; 3.6 % concentration) | % inhibition ([8]; 1.2 % concentration) | % inhibition ([8]; 3.6 % concentration) | other results
4 | 0.01 µM (≈ 0.00806 µg/mL) | 0.01 µM (≈ 0.00806 µg/mL) | CCCC1C=C(C)CC(C)CC(OC)C2OC(O)(C(=O)C(=O)N3CCCCC3C(=O)OC(C(C)=CC3CCC(O)C(OC)C3)C(C)C(O)CC1=O)C(C)CC2OC (stereo not shown) [Compound B, 1,14-dihydroxy-12-[2-(4-hydroxy-3-methoxycyclohexyl)-1-methylvinyl]-23,25-dimethoxy-13,19,21,27-tetramethyl-17-propyl-11,28-dioxa-4-azatricyclo[22.3.1.0^4,9]octacos-18-ene-2,3,10,16-tetraone] | 60% | 60% | – | – | – | – | – | –
5 | 0.5 µM (≈ 0.393 µg/mL) | 5 µM (≈ 3.93 µg/mL) | C=CCC1C=C(C)CC(C)CC(OC)C2OC(O)(C(=O)C(=O)N3CCCCC3C(=O)OC(C(C)=CC3CCC(O)C(OC)C3)C(C)C=CC1=O)C(C)CC2OC (stereo not shown) [Compound C, 17-allyl-1-hydroxy-12-[2-(4-hydroxy-3-methoxycyclohexyl)-1-methylvinyl]-23,25-dimethoxy-13,19,21,27-tetramethyl-11,28-dioxa-4-azatricyclo[22.3.1.0^4,9]octacosa-14,18-diene-2,3,10,16-tetraone] | 60% | – | – | – | – | – | – | –
6 | 0.005 µM (≈ 0.00402 µg/mL) | 0.05 µM (≈ 0.0402 µg/mL) | C=CC[C@@H]1/C=C(\C)C[C@H](C)C[C@H](OC)[C@H]2O[C@@](O)(C(=O)C(=O)N3CCCC[C@H]3C(=O)O[C@H](/C(C)=C/[C@@H]3CC[C@@H](O)[C@H](OC)C3)[C@H](C)[C@@H](O)CC1=O)[C@H](C)C[C@@H]2OC [Compound A, 17-Allyl-1,14-dihydroxy-12-[2-(4-hydroxy-3-methoxycyclo-hexyl)-1-methylvinyl]-23,25-dimethoxy-13,19,21,27-tetramethyl-11,28-dioxa-4-azatricyclo[22.3.1.0^4,9]octacos-18-ene-2,3,10,16-tetraone] | 30% | 52% | 52% | 64% | 85% | 52% | 56% | % inhibition ([4]; 0.0005 % concentration): 35%; % inhibition ([4]; 0.002 % concentration): 38%; % inhibition ([4]; 0.01 % concentration): 65%; % inhibition ([4]; 0.13 % concentration): 65%; clinical evaluation of the test sites / activity [5]: the treated areas can hardly be distinguished from the adjacent normal skin; inhibition at 0.5 µM ([7]; Homo sapiens, Keratinocyte, 0.5 μM, 48 hours, read-out: % inhibition compared to control): 57%; inhibition at 1 µM ([7]; Homo sapiens, Keratinocyte, 1 μM, 48 hours, read-out: % inhibition compared to control): 74%; inhibition at 5 µM ([7]; Homo sapiens, Keratinocyte, 5 μM, 48 hours, read-out: % inhibition compared to control): 94%; reduction in proliferation ([7]; concentration range from 0.5 to 5 μM): dose-dependent reduction in proliferation
